Assay results published in US8735622B2, “Histone demethylase inhibitors and methods for using the same” (The Regents of the University of Colorado, a body corporate, priority 2011, dated 2014).
Like-named read-outs stand apart in the source and are kept apart here.

Columns and labels:
[1] = molecular target: T1, JMJD2A (Homo sapiens, UniProt O75164); experiment: JMJD2A enzyme activity assay (DELFIA); type: biochemical; conditions: in vitro
T1 construct: Recombinant protein preparation of GASC1(1-420), JMJD2A (1-420) and LSD1 (full-length); made in house; host or cells: Escherichia coli BL-21
T1 sequence (O75164 1-420): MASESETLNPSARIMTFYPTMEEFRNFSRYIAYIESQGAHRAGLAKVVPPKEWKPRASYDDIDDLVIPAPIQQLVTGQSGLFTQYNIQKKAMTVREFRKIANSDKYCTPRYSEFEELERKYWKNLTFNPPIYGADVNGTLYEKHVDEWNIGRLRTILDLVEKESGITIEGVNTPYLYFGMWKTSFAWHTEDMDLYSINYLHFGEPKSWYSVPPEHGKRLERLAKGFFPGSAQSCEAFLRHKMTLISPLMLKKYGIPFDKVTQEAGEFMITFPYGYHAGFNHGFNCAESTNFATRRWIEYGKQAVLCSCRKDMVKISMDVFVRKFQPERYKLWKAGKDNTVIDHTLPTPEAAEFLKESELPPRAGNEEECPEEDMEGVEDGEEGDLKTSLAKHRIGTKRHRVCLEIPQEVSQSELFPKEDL
Experimental: In order to evaluate the inhibitory activity of 1 in vitro, a GST-fusion protein of the catalytic N-terminus of human GASC1 (gene amplified in squamous cell carcinoma 1) corresponding to amino acid 1-420 was cloned and purified. […] To evaluate the enzyme specificity of 1, the activity of 1 was examined against several other related enzymes in vitro.
The enzyme activity assays for GASC1 and JMJD2A were established on the DELFIA platform. DELFIA assays were performed in white, opaque 384-well plates coated with Streptavidin (Perkin Elmer). GST-GASC1(1-420) was diluted to 200 ng/well in 20 mM Tris HCl pH 8.5/2 mM glutathione and added in a volume of 20 μL. Blank wells received Tris/glutathione buffer only. Test compounds were diluted in DMSO and […] was pinned into the wells. Blank and control wells received only compound buffer. The reactions were initiated by the addition of 500 nM biotin-H3(1-20)K9me3 substrate, 10 μM FeSO4, 100 μM alpha-ketoglutarate in a volume of 20 μL, and incubated at room temperature for 60 minutes. The plates were washed 3 times with 100 μL of Wash Buffer (50 mM Tris pH 7.4, 150 mM NaCl, 0.05% Tween 20, 0.2% BSA). […] Time resolved fluorescence was measured after 45 minutes on an Envision Microplate Imager (Perkin Elmer Life Sciences) with 400 μs delay, excitation at 360 nm, and emission at 620 nm.

[2] = tested on: KYSE150 cells; experiment: Cell viability / growth inhibition assay (CellTiter-Glo); type: cell-based, human; conditions: 48 hours
Excerpt: To examine the cellular activity of the compounds of the invention, oesophageal carcinoma cell line KYSE150 was used in a growth inhibition assay because KYSE150 cells have been reported to contain several copies of the GASC1 gene, and it has been reported that inhibition of GASC1 expression using short hairpin RNA causes a significant reduction of proliferation in KYSE150 cells. […] Without being bound by any theory, it is believed that this low activity in cells was possibly due to the poor cellular uptake of the zwitterion form in which it typically exists under physiological conditions. Therefore, its methyl ester prodrug 2 (FIG. 1a), called methylstat was tested.
To screen and validate the cellular toxicity of compounds, a cell viability assay was carried out using CellTiter-Glo luminescent cell viability assay kit (Promega, Madison USA). KYSE150 cells were seeded on blank-walled 384-well plates with KYSE medium at densities of 1,000 cells/well. The medium volume for each well was 40 μL. Cells were incubated at 37° C. in 5% CO2/95% air for 24 hours. The medium was removed from each well and replaced with 38 μL, of warmed fresh medium and 2 μL, compound solution in 2% DMSO/98% H2O. The compounds were added into medium at different concentrations with the final concentration of DMSO as 0.1%. After incubation at 37° C. with 5% CO2/95% air for another 48 hours, the plates were equilibrated to room temperature for 30 minutes. 40 μL, of CellTiter-Glo reagent (Promega, Madison USA) was added to each well and mixed for 2 minutes on an orbital shaker. The plate was incubated at room temperature for another 10 minutes to stabilize luminescent signal. The luminescence of each sample was measured in a plate-reading illuminometer (Beckman Coulter DTX 880) with parameters of 1-minute lag time and 0.1 second/well read time. The experiments were performed in triplicate and repeated on two separately initiated cultures.

[3] = tested on: H3K4me3 and H3K9me3 levels in KYSE150 cells; experiment: Quantitative immunostaining assay of H3K4me3 and H3K9me3 in KYSE150 cells; type: cell-based, human; conditions: for EC50: Homo sapiens, KYSE-150, 48 hours, immunostaining image quantification
Experimental: To quantify the cellular activity of methylstat, a quantitative image-based assay was used. […] The cellular effects of methylstat were also cell type-specific.
For quantified immunostaining experiments, KYSE150 or MCF7 cells were seeded in a 96-well plate at 10,000 cells per well and incubated at 37° C. for 24 hours. The medium was replaced and methylstat in DMSO was added at the concentration as indicated. After incubation for another 48 hours, immunostaining procedure was performed as described above using anti-H3K9me3 or anti-H3K4me3 primary antibody. Fluorescent images of cells were acquired by a Nikon Eclipse 90i fluorescence microscope and analyzed using the Cell Scoring analysis module of MetaMorph 7.0 software.

[4] = molecular target: T2, LSD1 (Homo sapiens, UniProt O60341); experiment: LSD1 formaldehyde dehydrogenase coupled assay; type: biochemical; conditions: in vitro
T2 construct: LSD1 (full-length) was expressed as glutathione S-transferase (GST) fusions; made in house; host or cells: Escherichia coli BL-21
Experimental: LSD1 activity was measured in a formaldehyde dehydrogenase coupled assay. 15 μL enzyme mix containing 2.4 μg GST-LSD1 in 20 mM TRIS pH 8.5, 1 mM NAD, 1.5 mU formaldehyde dehydrogenase, 0.5 mM glutathione was added, followed by pin transfer of 100 nL compound. Then reactions were started by addition of 15 μL 75 μM H3(1-20)K4me2 peptide, and NADH fluorescence was measured on a Envision Microplate Imager (Perkin Elmer Life Sciences) with excitation at 345 nm and emission at 460 nm, integration for 400 ms at 10 min and 80 min after peptide addition.

inhibition of enzymatic activity of JMJD2A [1]: did not significantly inhibit
EC50 ([3]; read-out: EC50 for H3K4me3): 10.3 µM
EC50 ([3]; read-out: EC50 for H3K9me3): 8.6 µM
inhibition of FAD-dependent HDM LSD1 [4]: did not significantly inhibit
SMILES: COC(=O)/C=C/C(=O)N(O)CCCCNCc1ccc(COC(=O)Nc2cccc3ccccc23)cc1 [methylstat]
KYSE150 cell growth inhibition ([2]; compound 1 at up to 100 μM): inhibits KYSE150 cell growth
GI50 ([2]; Homo sapiens, KYSE-150, KYSE150 cells, read-out: half maximal growth inhibitory concentration (GI50)): ~5.1 µM
increase of the H3K9me3 mark [3]: 10.8 fold
